How the values were obtained:
[1] = in vivo, cited from earlier work
[2] = tested on: CT26 colon carcinoma cells; test: CT26 tumor model, BNT411 alone and with oxaliplatin (Example 4); format: in vivo, mouse; details: BNT411 3 mg/kg i.v. eight times; oxaliplatin 5 mg/kg i.p. four times; group mean tumor volumes test vs control
Procedure: FIG. 5. Anti-tumoral efficacy of BNT411 alone and in combination with oxaliplatin in a tumor mouse model. Mice (n=12 or 13 per group) subcutaneously inoculated with 2.5×10^5 CT26 colon carcinoma cells were used as tumor mouse model. Oxaliplatin was administered intraperitoneally (i.p.) (5 mg/kg, four times with 4 to 5 days between injections). BNT411 was administered i.v. at a dose level of 3 mg/kg eight times with 2 to 5 days interval between injections and at least 2 days after oxaliplatin therapy. Anti-tumor efficacy was evaluated by group mean tumor volumes in test versus control groups (vehicle only) on days 33 and 42 (at least 50% of test and control animals alive). IFNα levels in plasma were analyzed 1 h after first BNT411 administration and gp70+ T-cell populations in blood were analyzed on days 34 and 41. (A) Dosing schedule. (B) Graph showing the tumor volumes vs. days after inoculation. Group mean tumor volumes (±SEM (standard error of the mean)) for all live animals are shown. Treatment groups included nine to ten mice. Additionally, tumor volumes of animals that were euthanized due to tumor load were carried forward for as long as they were larger than the group median tumor volume (last observation carried forward (LOCF) values). Curves were discontinued for groups with less than 50% animals alive. (C) Graph showing IFNα serum level 60 min after first injection for the 4 groups (control (vehicle); BNT411 alone; oxaliplatin alone; BNT411 and oxaliplatin). IFNα levels in control and test groups are shown by vertical bars (±SEM), Statistical significance between groups is indicated by horizontal lines. P-value summary: ****=p≤0.0001; ***=p≤0.001; **=p≤0.01, […].
Serum levels of IFNα were measured by sandwich ELISA (Pbl Assay Systems) according to manufacturer's instructions.
BALB/c mice were inoculated s.c. with 2.5×10^5−5×10^5 CT26-WT into the flank, respectively. Once tumors reached palpable sizes, mice were randomly divided into treatment and control groups. Tumor volume was measured unblinded with a caliper and calculated using the formula (a×b^2)/2 (a being the largest and b being the smallest diameter of the tumor). Tumor growth was documented as mean tumor size with standard error disregarding single distant outliers. Treatment was initiated after 7-10 d with tumors having reached an average volume of about 10 mm^3. […]
Oxaliplatin was administered intraperitoneally (i.p.) (5 mg/kg, four times with 4 to 5 days between injections). […] Anti-tumor efficacy was evaluated by group mean tumor volumes in test versus control groups (vehicle only) on study days 33 and 42, (at least 50% of test and control animals alive). IFNα levels in plasma were analyzed 1 h after first BNT411 administration and gp70+ T-cell populations in blood on study days 34 and 41.

CCc1nc2c(N)nc3ccccc3c2n1CCCCNS(C)(=O)=O [852A]
tolerability of repeat-dose regimens [1]: not well tolerated

CC(C)Cn1cnc2c(N)nc3ccccc3c21 [imiquimod]
tolerability of repeated i.v. administrations at a systemically effective IFNa-inducing dose level ([1]; iv): dose limiting adverse reactions

O=C1[O][Pt]2([NH][C@@H]3CCCC[C@H]3[NH]2)[O]C1=O [oxaliplatin, reference compound]
anti-tumor efficacy, T/C value [2]: 50.7%
